Key:
Pimephales promelas = assay: 96 h LC50 (-log10 mol/L); higher = more toxic
Tetrahymena pyriformis = assay: 48 h IGC50 (-log10 mol/L); higher = more toxic

Compound | 96 h LC50 (-log10 mol/L) (Pimephales promelas) | 48 h IGC50 (-log10 mol/L) (Tetrahymena pyriformis)
C=CCN=C=S | 6.06 | 5.06
CCNCc1ccccc1 | 3.37 | 3.22
CCOC(=O)c1ccccc1 | 4.25 | 2.99
NC(=O)c1ccccc1O | 3.13 | 2.76
N#Cc1cccc([N+](=O)[O-])c1 | 3.39 | 3.45
CCCCCO | 2.22 | 1.97
O=[N+]([O-])c1ccc(F)cc1 | 3.7 | 3.1
C=Cn1c2ccccc2c2ccccc21 | 7.81 | 5.24
O=Cc1c(F)c(F)c(F)c(F)c1F | 5.25 | 3.82
O=[N+]([O-])c1ncccc1O | 2.92 | 3.87
Cc1c[nH]c2ccccc12 | 4.17 | 3.37
Cc1cccc(O)c1 | 3.29 | 2.92
C=CCC(O)C=C (stereo unspecified) | 3.41 | 3.25
Clc1nc(Cl)c(Cl)c(Cl)c1Cl | 5.73 | 4.71
Oc1ccc(Oc2ccccc2)cc1 | 4.58 | 4.36
O=Cc1cccc([N+](=O)[O-])c1 | 4.42 | 3.11
C#CC(C)(C)O | 1.41 | 1.69
CCCCCCCCO | 3.98 | 3.58
NC(=O)c1ccccc1 | 2.26 | 2.09
Cc1cc(C)c(C#N)c(=O)[nH]1 | 2.98 | 2.3
NCCN1CCNCC1 | 1.77 | 2.21

Compound | 96 h LC50 (-log10 mol/L) (Pimephales promelas) | 48 h IGC50 (-log10 mol/L) (Tetrahymena pyriformis)
O=Cc1ccccc1[N+](=O)[O-] | 4.02 | 3.17
COC(=O)c1ccc(Cl)cc1 | 4.16 | 3.42
CO | 0.056 | 0.334
CC(C)COC(=O)c1ccccc1C(=O)OCC(C)C | 5.49 | 4.44
CCCCCCCCN | 4.4 | 3.35
CN1CCNCC1 | 1.64 | 2.04
O=Cc1ccc([N+](=O)[O-])cc1 | 4.17 | 3.2
Nc1cc([N+](=O)[O-])cc([N+](=O)[O-])c1 | 3.93 | 3.94
Oc1ccc(Cl)cc1Cc1cc(Cl)ccc1O | 5.94 | 6.09
N#CCCCCCCC#N | 2.41 | 2.23
CCCCCCCCBr | 5.36 | 4.87
O/N=C/c1ccccc1O | 4.63 | 3.25
c1ccc(-c2ccncc2)cc1 | 3.98 | 3.66
Nc1ccc(F)cc1C(F)(F)F | 3.78 | 2.98
CC(C)(CC(=O)O)CC(=O)O | 1.05 | 2.34
CC(O)CO (stereo unspecified) | 0.349 | 0.49
Cc1cccc(Cl)c1C#N | 4 | 3.46
C=CC(=O)OCC(C)O (stereo unspecified) | 4.59 | 3.65
CCCCOC(=O)/C=C/C(=O)OCCCC | 5.52 | 4.49
CCOP(=O)(Cc1ccccc1)OCC | 2.83 | 2.57
O=[N+]([O-])c1c(Cl)cc(Cl)c([N+](=O)[O-])c1Cl | 6.09 | 5.19

Compound | 96 h LC50 (-log10 mol/L) (Pimephales promelas) | 48 h IGC50 (-log10 mol/L) (Tetrahymena pyriformis)
CC(=O)OC(C)(C)C | 2.55 | 1.51
O=Cc1cccnc1 | 3.81 | 2.87
OCCCc1cccnc1 | 2.96 | 2.16
OCCCCl | 2.07 | 1.6
CCCCOC(=O)CCC(=O)OCCCC | 4.71 | 3.51
CC(=O)c1ccc(Cl)cc1Cl | 4.21 | 3.62
O=c1cc(-c2ccccc2)oc2ccccc12 | 4.8 | 4.41
Nc1ccc(Cl)c(Cl)c1 | 4.32 | 4.37
CC(=O)Nc1cccc(O)c1 | 2.13 | 2.84
O=Cc1ccc(O)cc1O | 4.02 | 3.52
CCCCCCCC(C)=O | 3.97 | 3.66
Cc1ccc(N)cc1N | 1.94 | 2.34
Cc1cc(Cl)nc(N)n1 | 3.01 | 2.53
O=[N+]([O-])c1cc([N+](=O)[O-])c(Cl)cc1Cl | 6.78 | 5.72
Oc1cccnc1Cl | 2.32 | 2.99
C=CCc1ccccc1O | 3.98 | 3.33
C=CC(=O)OCCO | 4.38 | 3.69
CCC(C)=NO | 2.01 | 1.93
Cc1cc([N+](=O)[O-])ccc1N | 3.24 | 3.49
O=C(c1ccccc1)c1ccncc1 | 3.25 | 2.91
N#Cc1ccc([N+](=O)[O-])cc1 | 3.78 | 3.57

Compound | 96 h LC50 (-log10 mol/L) (Pimephales promelas) | 48 h IGC50 (-log10 mol/L) (Tetrahymena pyriformis)
CC(=O)CC(C)C | 2.27 | 1.79
C=C(C)C(=O)OCc1ccccc1 | 4.58 | 3.65
C=C(C)C(=O)OCCO | 2.76 | 1.92
CCCCCCCCCCCO | 5.22 | 4.96
CCN(CC)c1ccccc1 | 3.96 | 3.66
CCOC(=O)C(Cc1ccccc1)C(=O)OCC | 4.66 | 3.71
NC(=O)c1ccc(Cl)cc1Cl | 3.3 | 2.64
Nc1cccc(OCc2ccccc2)c1 | 4.34 | 3.88
Oc1cccnc1Br | 2.57 | 3.15
C=CC(N)=O | 2.79 | 2.19
CCCCCCCCCCC(C)=O | 5.19 | 4.67
Cc1ccc(N)c([N+](=O)[O-])c1 | 3.79 | 3.37
CCCCOC(=O)CCCCC(=O)OCCCC | 4.85 | 3.79
CCC(C)(C)c1ccc(O)cc1 | 4.8 | 4.23
Oc1c(I)cc(I)cc1I | 5.59 | 5.67
CCCC=O | 3.65 | 2.62
CC=NO | 2.89 | 1.39
CC(=O)c1ccc(Cl)c(Cl)c1Cl | 5.05 | 4.34
Cc1ccccn1 | 2.02 | 1.99
CCCCCC(=O)O | 2.84 | 2.79

— EPA's aquatic toxicity sets
